Data from patent US6933321B2, “Antiandrogenic biphenyls” (Endorecherche, Inc., priority 2002, dated 2005).
Where two headings read alike, the source gives them in different places.

System: Shionogi mouse mammary carcinoma cells
Assay: Antiandrogenic activity on DHT-stimulated Shionogi mouse mammary carcinoma cell number
Format: cell-based
Details: for A = Ki OH-Flu/Ki compound: ratio of Ki of hydroxyflutamide versus tested compound, higher values preferable
[1] = Mus musculus, inhibition of DHT-stimulated Shionogi cell number, 10-12 days, read-out: Antiandrogenic activity IC50
[2] = inhibition of DHT-stimulated Shionogi cell number
[3] = Mus musculus, read-out: Antiandrogenic activity IC50 (nM)
[4] = inhibition of DHT-stimulated Shionogi cell number, 10-12 days, read-out: Antiandrogenic activity IC50

Structure (SMILES)	IC50 [1] [nM]	A = Ki OH-Flu/Ki compound [2]	IC50 [3] [nM]	IC50 [4] [nM]
N#Cc1ccc(-c2ccc(Br)c([N+](=O)[O-])c2)cc1 [EM-4338]	> 500	<0.2	–	–
CC(=O)Nc1cc(-c2ccc(C#N)c(C(F)(F)F)c2)c(C(N)=O)cc1F [EM-5002]	> 500	<0.2	–	–
N#Cc1ccc(-c2ccc(C#N)c(C(F)(F)F)c2)cc1F [EM-4065]	–	<0.2	> 500	–
N#Cc1ccc(-c2ccc(Cl)c(C(F)(F)F)c2)cc1 [EM-4248]	> 500	<0.2	–	–
N#Cc1ccc(-c2ccc(C#N)c(C(F)(F)F)c2)cc1Cl [EM-4108]	112	0.6	–	–
N#Cc1ccc(-c2ccc(F)cc2C(=O)Nc2ccncc2)cc1C(F)(F)F [EM-5019]	> 500	<0.2	–	–
N#Cc1ccc(-c2cc([N+](=O)[O-])c(F)cc2F)cc1C(F)(F)F [EM-4867]	> 500	<0.2	–	–
Cc1cc(F)cc([N+](=O)[O-])c1-c1ccc(C#N)c(C(F)(F)F)c1 [EM-4947]	> 500	<0.2	–	–
Cc1cc(C#N)c(Cl)cc1-c1ccc(F)cc1F [EM-5112]	–	1.1	97	–
CCCN(CCC)C(=O)c1cc(F)ccc1-c1ccc(C#N)c(C(F)(F)F)c1 [EM-4845]	> 500	<0.2	–	–
N#Cc1ccccc1-c1ccc(C#N)c(C(F)(F)F)c1 [EM-4071]	–	2.5	33	–
N#Cc1ccc(-c2ccccc2)cc1C(F)(F)F [EM-4118]	> 500	<0.2	–	–
N#Cc1ccc(-c2ccc(F)cc2C(=O)NCc2ccccc2)cc1C(F)(F)F [EM-5085]	> 500	<0.2	–	–
N#Cc1ccc(-c2ccc(F)cc2F)cc1F [EM-4282]	> 500	<0.2	–	–
N#Cc1ccc(-c2ccc(C#N)c(C(F)(F)F)c2)cc1 [EM-3730]	190	–	–	152
N#Cc1ccc(-c2c(F)cc(F)cc2[N+](=O)[O-])cc1C(F)(F)F [EM-4948]	> 500	<0.2	–	–
N#Cc1ccc(-c2ccc(F)c(C(F)(F)F)c2)cc1C(F)(F)F [EM-4093]	> 500	<0.2	–	–
N#Cc1ccc(-c2ccc(Br)c(C(F)(F)F)c2)cc1 [EM-4177]	> 500	<0.2	–	–
N#Cc1ccc(-c2ccc(C(O)C(F)(F)F)cc2)cc1C(F)(F)F (centres unmarked) [EM-3998]	> 500	<0.2	–	–
CCOc1ccc(-c2ccc(C#N)c(C(F)(F)F)c2)c(C(N)=O)c1 [EM-4925]	> 500	<0.2	–	–
N#Cc1ccc(-c2ccc(C#N)cc2)cc1 [EM-3993]	> 500	<0.2	–	–
N#Cc1ccc(-c2c(F)cc(F)cc2F)cc1Cl [EM-4851]	> 500	<0.2	–	–
N#Cc1ccc(-c2ccc(F)cc2C(=O)N2CCCC2)cc1C(F)(F)F [EM-5014]	> 500	<0.2	–	–
N#Cc1ccc(-c2ccc(C#N)c(C(F)(F)F)c2)cc1C(F)(F)F [EM-4012]	> 500	<0.2	–	–
Cc1cc(-c2ccc(C#N)c(C(F)(F)F)c2)ccc1C#N [EM-4069]	110	0.7	–	–

Structure (SMILES)	IC50 [1] [nM]	A = Ki OH-Flu/Ki compound [2]	IC50 [3] [nM]	IC50 [4] [nM]
N#Cc1ccc(-c2ccc(N)cc2C(F)(F)F)cc1C(F)(F)F [EM-4154]	145	0.7	–	–
N#Cc1ccc(-c2ccc(C#N)c([N+](=O)[O-])c2)cc1 [EM-4344]	> 500	<0.2	–	–
N#Cc1ccc(-c2ccc(F)c([N+](=O)[O-])c2)cc1C(F)(F)F [EM-4230]	> 500	<0.2	–	–
CS(=O)(=O)c1cc(C#N)ccc1-c1ccc(C#N)c(C(F)(F)F)c1 [EM-4255]	> 500	<0.2	–	–
COc1ccc(-c2ccc([N+](=O)[O-])cc2)cc1 [EM-3234]	> 500	<0.2	–	–
COC=Nc1cc(F)cc(C(N)=O)c1-c1ccc(C#N)c(C(F)(F)F)c1 [EM-5093]	> 500	<0.2	–	–
N#Cc1ccc(-c2ccc(N)cc2)cc1 [EM-4049]	> 500	<0.2	–	–
N#Cc1ccc(-c2ccc(F)cc2C(F)(F)F)cc1C(F)(F)F [EM-4296]	> 500	<0.2	–	–
N#Cc1cc(F)c(-c2ccc(F)cc2F)cc1Cl [EM-5111]	> 500	<0.2	–	–
N#Cc1ccc(-c2cc(F)cc(F)c2)cc1C(F)(F)F [EM-3974]	> 500	<0.2	–	–
N#Cc1ccc(-c2ccc(F)cc2C(=O)Nc2ccc(Cl)cc2)cc1C(F)(F)F [EM-5086]	–	<0.2	–	> 500
N#Cc1ccc(-c2ccc(C#N)c(C(F)(F)F)c2)c(C(N)=O)c1 [EM-4320]	> 500	<0.2	–	–
N#Cc1cc(F)ccc1-c1ccc(C#N)c(C(F)(F)F)c1 [EM-4096]	> 500	<0.2	–	–
N#Cc1ccc(-c2ccc(F)cc2F)cc1C(F)(F)F [EM-3975]	131	0.77	–	–
N#Cc1ccc(-c2ccc([N+](=O)[O-])cc2)cc1C(F)(F)F [EM-4149]	> 500	<0.2	–	–
N#Cc1ccc(-c2ccc(F)cc2C(=O)N2CCOCC2)cc1C(F)(F)F [EM-5021]	> 500	<0.2	–	–
CCN(CC)C(=O)c1cc(F)ccc1-c1ccc(C#N)c(C(F)(F)F)c1 [EM-4841]	> 500	<0.2	–	–
CSc1ccc(-c2ccc(C#N)c(C(F)(F)F)c2)cc1 [EM-3732]	> 500	<0.2	–	–
CCCNC(=O)c1cc(F)ccc1-c1ccc(C#N)c(C(F)(F)F)c1 [EM-4855]	> 500	<0.2	–	–
CC(O)(c1ccc(-c2ccc(C#N)cc2)cc1)C(F)(F)F (centres unmarked) [EM-3979]	> 500	<0.2	–	–
CSc1cc(C#N)ccc1-c1ccc(C#N)c(C(F)(F)F)c1 [EM-4227]	121	1.2	–	–
N#Cc1ccc(-c2ccc(F)cc2)cc1C(F)(F)F [EM-3705]	129	0.7	–	–
CC(=O)Nc1ccc(-c2ccc(C#N)c(C(F)(F)F)c2)cc1 [EM-4243]	> 500	<0.2	–	–
CN(C)c1ccc(NC(=O)c2cc(F)ccc2-c2ccc(C#N)c(C(F)(F)F)c2)cc1 [EM-5083]	> 500	<0.2	–	–
N#Cc1cc(-c2ccc(C#N)c(C(F)(F)F)c2)ccc1F [EM-4056]	> 500	<0.2	–	–

Structure (SMILES)	IC50 [1] [nM]	A = Ki OH-Flu/Ki compound [2]	IC50 [3] [nM]	IC50 [4] [nM]
N#Cc1ccc(-c2ccc(Cl)cc2)cc1C(F)(F)F [EM-3703]	–	0.3	97	–
COc1ccc(-c2ccc(C#N)cc2)cc1Br [EM-4036]	> 500	<0.2	–	–
COc1ccc(-c2ccc([N+](=O)[O-])c(C(F)(F)F)c2)cc1 [EM-3393]	129	0.4	–	–
CS(=O)(=O)Nc1ccc(-c2ccc(C#N)c(C(F)(F)F)c2)cc1 [EM-4244]	> 500	<0.2	–	–
Cc1ccc(-c2ccc(C#N)c(C(F)(F)F)c2)c(C(F)(F)F)c1 [EM-4185]	193	0.7	–	–
Cc1cc(C#N)ccc1-c1ccc(C#N)c(C(F)(F)F)c1 [EM-4079]	–	0.8	78	–
CN(C)C(=O)Nc1ccc(-c2ccc(C#N)c(C(F)(F)F)c2)cc1 [EM-4206]	> 500	<0.2	–	–
N#Cc1ccc(-c2ccc(F)cc2F)cc1[N+](=O)[O-] [EM-4633]	96	0.8	–	–
N#Cc1ccc(-c2ccc(C#N)c(C(F)(F)F)c2)c([N+](=O)[O-])c1 [EM-4253]	> 500	<0.2	–	–
N#Cc1ccc(-c2ccc([N+](=O)[O-])c(C(F)(F)F)c2)cc1 [EM-4180]	–	<0.2	> 500	–
N#Cc1ccc(-c2ccc(C(F)(F)F)cc2)cc1C(F)(F)F [EM-4051]	> 500	<0.2	–	–
CSc1cc(-c2ccc(F)cc2F)ccc1C#N [EM-4288]	28	4.4	–	–
CSc1cc(-c2ccc(C#N)cc2)ccc1C#N [EM-4285]	> 500	<0.2	–	–
N#Cc1ccc(-c2ccc(C#N)c(F)c2)cc1 [EM-4280]	> 500	<0.2	–	–
N#Cc1ccc(-c2c(F)cc(F)cc2F)cc1C(F)(F)F [EM-4203]	280	0.6	–	–
N#Cc1ccc(-c2cccc(F)c2)cc1C(F)(F)F [EM-3977]	> 500	<0.2	–	–
N#Cc1ccc(-c2ccc(F)cc2F)cc1Cl [EM-4283, 3-chloro-2′,4′-difluoro-biphenyl-4-carbonitrile]	–	2.3	37	–
CN(C)c1ccc(-c2ccc(C#N)c(C(F)(F)F)c2)cc1 [EM-3814]	150	0.9	–	–
CCCCNC(=O)c1cc(F)ccc1-c1ccc(C#N)c(C(F)(F)F)c1 [EM-4856]	> 500	<0.2	–	–
N#Cc1ccc(-c2ccc(C(N)=O)cc2)cc1C(F)(F)F [EM-3971]	> 500	<0.2	–	–
C[S+]([O-])c1ccc(-c2ccc(C#N)c(C(F)(F)F)c2)cc1 (centres unmarked) [EM-3812]	> 500	<0.2	–	–
N#Cc1ccc(-c2ccc(Br)cc2C(N)=O)cc1C(F)(F)F [EM-4979]	> 500	<0.2	–	–
COc1ccc(-c2ccc(C#N)cc2)cc1C(F)(F)F [EM-4246]	> 500	<0.2	–	–
